The source made the active and inactive calls.
Tests used:
[1] = luciferase reporter signal suppression in cells – H4 neuroglioma cells, luminescence, dose response (AID 1990); format: functional, cell-based
[2] = target: T1, High affinity choline transporter 1 (Homo sapiens, UniProt Q9GZV3); assay: human choline transporter blockers, potency – cell-based, 5-point CRC, membrane potential dye, dose response (AID 504840); format: functional
T1 sequence (Q9GZV3 whole entry): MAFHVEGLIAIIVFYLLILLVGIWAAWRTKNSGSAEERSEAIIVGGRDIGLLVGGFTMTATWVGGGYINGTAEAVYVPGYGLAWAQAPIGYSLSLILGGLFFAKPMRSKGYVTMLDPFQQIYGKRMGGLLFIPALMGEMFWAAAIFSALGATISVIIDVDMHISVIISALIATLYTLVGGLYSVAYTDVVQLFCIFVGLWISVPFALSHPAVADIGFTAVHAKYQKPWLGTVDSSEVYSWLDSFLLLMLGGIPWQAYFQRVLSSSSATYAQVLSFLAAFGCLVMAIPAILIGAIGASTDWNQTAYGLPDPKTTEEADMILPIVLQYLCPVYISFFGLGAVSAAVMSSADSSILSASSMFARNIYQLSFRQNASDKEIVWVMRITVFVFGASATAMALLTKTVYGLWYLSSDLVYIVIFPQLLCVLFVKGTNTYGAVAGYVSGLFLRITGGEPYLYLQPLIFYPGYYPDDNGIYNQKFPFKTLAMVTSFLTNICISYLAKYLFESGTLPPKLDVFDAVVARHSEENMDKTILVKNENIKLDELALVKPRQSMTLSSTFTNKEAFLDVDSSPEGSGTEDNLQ

[3] = Luminescence Cell-Based Dose Response HTS to Identify Inhibitors of 5'UTR Stem-Loop Driven Prion Protein mRNA Translation in H4 Neuroglioblastoma Cells. [Related pubchem assays: 1827 (Project Summary), 1813 (Primary HTS)]; format: functional
[4] = Luminescence Cell-Based Dose Confirmation HTS to Identify Inhibitors of Platelet Dense Granule Release. [Related pubchem assays: 1663 (Primary HTS), 1678 (Summary of Project)]; format: functional
HEK293 [5] = assay: cells; details: Homo sapiens
[6] = target: Luciferin 4-monooxygenase (Photinus pyralis, UniProt P08659); assay: inhibition of purified Photinus pyralis luciferase – biochemical, luminescence, dose response (AID 1891)
Chain of Luciferin 4-monooxygenase (P08659 whole entry): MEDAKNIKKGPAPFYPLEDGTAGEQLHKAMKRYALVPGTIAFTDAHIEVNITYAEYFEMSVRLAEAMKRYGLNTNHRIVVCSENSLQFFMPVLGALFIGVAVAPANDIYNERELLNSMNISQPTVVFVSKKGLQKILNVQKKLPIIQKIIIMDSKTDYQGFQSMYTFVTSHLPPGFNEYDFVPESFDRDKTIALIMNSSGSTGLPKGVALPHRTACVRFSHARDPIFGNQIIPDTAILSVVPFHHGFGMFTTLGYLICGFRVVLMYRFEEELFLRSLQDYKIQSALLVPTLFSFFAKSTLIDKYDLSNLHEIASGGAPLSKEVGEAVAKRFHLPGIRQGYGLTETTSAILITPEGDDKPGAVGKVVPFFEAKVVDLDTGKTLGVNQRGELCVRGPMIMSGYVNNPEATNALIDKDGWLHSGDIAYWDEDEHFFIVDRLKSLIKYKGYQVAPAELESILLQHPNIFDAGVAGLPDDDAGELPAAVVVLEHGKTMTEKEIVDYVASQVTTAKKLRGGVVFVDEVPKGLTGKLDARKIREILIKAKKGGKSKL

HEK293 [7] = assay: cells; details: Homo sapiens; remark: listed apart in the source
[8] = alpha-synuclein stem-loop luciferase translation blockers – H4 neuroglioma cells, luminescence, confirmation (AID 1988); format: functional, cell-based
[9] = target: 5-hydroxytryptamine receptor 5A (Homo sapiens, UniProt P47898); assay: Counterscreen for agonists of OPRM1-OPRD1 heterodimerization: luminescence-based cell-based high throughput dose response assay to identify agonists of 5-hydroxytryptamine (serotonin) 5A receptor (HTR5A). [Related pubchem assays (depositor defined):AID504326, AID504355, AID504692, AID504904, AID504905]; format: functional
Chain of 5-hydroxytryptamine receptor 5A (P47898 whole entry): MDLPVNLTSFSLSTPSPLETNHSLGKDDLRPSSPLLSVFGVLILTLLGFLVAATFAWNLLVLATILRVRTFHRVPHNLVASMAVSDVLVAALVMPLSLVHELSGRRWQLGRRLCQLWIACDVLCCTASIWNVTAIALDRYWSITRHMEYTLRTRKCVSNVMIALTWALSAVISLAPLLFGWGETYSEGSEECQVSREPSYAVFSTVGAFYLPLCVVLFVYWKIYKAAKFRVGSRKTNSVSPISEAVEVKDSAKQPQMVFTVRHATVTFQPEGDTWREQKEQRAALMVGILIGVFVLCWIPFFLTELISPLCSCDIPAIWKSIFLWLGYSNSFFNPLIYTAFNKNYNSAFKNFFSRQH

Mu-type opioid receptor = Mu-type opioid receptor (Homo sapiens, UniProt P35372); assay: (§1) Counterscreen for agonists of heterodimerization of the mu 1 (OPRM1) and delta 1 (OPRD1) opioid receptors: Luminescence-based cell-based high throughput dose response assay to identify agonists of OPRM1 homodimerization.; format: functional
Chain of Mu-type opioid receptor (P35372 whole entry): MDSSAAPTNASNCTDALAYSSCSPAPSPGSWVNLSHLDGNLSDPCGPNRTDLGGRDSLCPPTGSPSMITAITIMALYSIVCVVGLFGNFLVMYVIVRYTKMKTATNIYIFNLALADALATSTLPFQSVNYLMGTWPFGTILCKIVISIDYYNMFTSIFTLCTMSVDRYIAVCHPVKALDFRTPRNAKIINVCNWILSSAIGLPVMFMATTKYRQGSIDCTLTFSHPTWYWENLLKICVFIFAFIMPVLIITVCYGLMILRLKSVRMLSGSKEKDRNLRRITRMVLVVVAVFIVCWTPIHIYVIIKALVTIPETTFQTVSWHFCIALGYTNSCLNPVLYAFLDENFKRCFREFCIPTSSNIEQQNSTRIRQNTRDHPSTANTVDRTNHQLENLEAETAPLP

[10] = target: Delta-type opioid receptor (Homo sapiens, UniProt P41143); assay: as §1, with “of OPRD1” for “of OPRM1”, “homodimerization. [Related pubchem assays (depositor defined):AID504326, AID504355, AID504692, AID504904, AID504905]” for “homodimerization.”; format: functional
Chain of Delta-type opioid receptor (P41143 whole entry): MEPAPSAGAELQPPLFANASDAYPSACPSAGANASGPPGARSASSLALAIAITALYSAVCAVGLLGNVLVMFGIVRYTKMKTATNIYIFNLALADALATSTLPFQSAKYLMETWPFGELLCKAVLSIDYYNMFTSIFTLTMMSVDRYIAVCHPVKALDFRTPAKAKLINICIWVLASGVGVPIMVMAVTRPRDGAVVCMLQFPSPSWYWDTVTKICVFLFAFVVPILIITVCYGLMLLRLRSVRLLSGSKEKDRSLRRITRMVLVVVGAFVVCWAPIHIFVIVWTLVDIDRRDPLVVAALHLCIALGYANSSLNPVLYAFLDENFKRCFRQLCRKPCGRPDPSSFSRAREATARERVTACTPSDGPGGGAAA

Escherichia coli = assay: microbe, parasite or virus in culture
[11] = target: T2, Apoptotic protease-activating factor 1 (Homo sapiens, UniProt O14727); format: functional
T2 sequence (O14727 whole entry): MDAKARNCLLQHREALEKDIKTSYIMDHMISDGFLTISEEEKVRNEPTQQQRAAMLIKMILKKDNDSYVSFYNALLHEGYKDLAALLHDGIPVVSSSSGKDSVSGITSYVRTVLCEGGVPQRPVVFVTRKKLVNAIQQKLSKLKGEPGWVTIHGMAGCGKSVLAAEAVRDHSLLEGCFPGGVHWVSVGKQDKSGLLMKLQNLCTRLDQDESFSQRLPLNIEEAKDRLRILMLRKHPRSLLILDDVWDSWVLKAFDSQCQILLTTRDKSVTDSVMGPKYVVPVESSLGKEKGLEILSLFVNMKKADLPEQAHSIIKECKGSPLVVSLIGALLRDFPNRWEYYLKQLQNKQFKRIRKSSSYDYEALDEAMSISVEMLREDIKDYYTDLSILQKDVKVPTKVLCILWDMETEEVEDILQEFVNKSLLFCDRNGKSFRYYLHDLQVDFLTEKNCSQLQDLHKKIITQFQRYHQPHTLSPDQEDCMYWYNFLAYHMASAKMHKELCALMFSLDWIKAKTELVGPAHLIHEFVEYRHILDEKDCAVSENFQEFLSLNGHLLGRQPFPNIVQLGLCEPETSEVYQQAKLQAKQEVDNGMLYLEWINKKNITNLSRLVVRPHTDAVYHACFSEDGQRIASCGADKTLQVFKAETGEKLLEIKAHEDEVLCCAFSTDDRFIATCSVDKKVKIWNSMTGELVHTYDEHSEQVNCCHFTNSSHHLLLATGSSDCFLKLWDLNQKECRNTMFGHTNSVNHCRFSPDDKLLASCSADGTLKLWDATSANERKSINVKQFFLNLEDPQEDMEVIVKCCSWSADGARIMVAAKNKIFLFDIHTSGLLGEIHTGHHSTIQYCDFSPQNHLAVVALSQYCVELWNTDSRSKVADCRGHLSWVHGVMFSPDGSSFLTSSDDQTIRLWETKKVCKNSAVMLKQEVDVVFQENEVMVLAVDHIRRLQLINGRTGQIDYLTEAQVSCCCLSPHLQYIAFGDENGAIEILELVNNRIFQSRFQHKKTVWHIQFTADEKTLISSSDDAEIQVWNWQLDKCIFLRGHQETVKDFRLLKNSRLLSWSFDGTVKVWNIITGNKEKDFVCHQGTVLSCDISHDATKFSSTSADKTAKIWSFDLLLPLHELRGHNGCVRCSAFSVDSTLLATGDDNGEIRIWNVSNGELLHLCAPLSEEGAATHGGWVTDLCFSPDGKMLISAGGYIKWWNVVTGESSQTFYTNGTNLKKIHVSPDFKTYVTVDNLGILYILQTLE

[12] = target: T3, Replicative DNA helicase DnaB (Mycobacterium tuberculosis, UniProt P9WMR3); assay: DnaB intein splicing inhibitors, dose response, biochemical, cell-free fluorescence (AID 449749); format: functional
T3 sequence (P9WMR3 whole entry): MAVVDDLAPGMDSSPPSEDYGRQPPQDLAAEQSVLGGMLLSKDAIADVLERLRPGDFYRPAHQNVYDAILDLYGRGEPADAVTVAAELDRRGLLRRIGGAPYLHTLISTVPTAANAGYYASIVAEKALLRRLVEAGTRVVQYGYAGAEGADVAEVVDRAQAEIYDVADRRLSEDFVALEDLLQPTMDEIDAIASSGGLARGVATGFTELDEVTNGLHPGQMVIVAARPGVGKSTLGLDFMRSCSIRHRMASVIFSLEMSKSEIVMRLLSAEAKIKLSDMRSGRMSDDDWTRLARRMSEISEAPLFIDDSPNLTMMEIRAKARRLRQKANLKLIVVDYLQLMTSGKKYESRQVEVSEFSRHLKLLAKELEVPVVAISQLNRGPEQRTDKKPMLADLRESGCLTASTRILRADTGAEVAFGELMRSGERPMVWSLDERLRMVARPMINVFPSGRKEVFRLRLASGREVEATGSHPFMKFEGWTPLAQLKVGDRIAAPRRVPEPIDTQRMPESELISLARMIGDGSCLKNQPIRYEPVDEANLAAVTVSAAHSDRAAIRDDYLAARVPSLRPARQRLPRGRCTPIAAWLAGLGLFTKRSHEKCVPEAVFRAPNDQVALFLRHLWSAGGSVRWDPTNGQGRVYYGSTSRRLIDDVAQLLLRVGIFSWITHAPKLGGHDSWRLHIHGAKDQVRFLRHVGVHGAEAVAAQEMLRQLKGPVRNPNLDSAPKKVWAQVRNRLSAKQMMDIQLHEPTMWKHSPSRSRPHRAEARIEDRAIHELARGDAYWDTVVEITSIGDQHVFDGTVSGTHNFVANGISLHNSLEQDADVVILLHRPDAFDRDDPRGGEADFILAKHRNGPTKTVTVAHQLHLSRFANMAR

[13] = target: T4, Microphthalmia-associated transcription factor (Homo sapiens, UniProt O75030); assay: reducers of TRPM1 reporter luminescence, concentration series – cell-based, SK-MEL-5, cherry-picked, set 3, MITF inhibitor project, dose response (AID 493073); format: functional;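 note: SK-MEL-5 melanoma cells with luciferase driven by the MITF target TRPM1 promoter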
T4 sequence (O75030 whole entry): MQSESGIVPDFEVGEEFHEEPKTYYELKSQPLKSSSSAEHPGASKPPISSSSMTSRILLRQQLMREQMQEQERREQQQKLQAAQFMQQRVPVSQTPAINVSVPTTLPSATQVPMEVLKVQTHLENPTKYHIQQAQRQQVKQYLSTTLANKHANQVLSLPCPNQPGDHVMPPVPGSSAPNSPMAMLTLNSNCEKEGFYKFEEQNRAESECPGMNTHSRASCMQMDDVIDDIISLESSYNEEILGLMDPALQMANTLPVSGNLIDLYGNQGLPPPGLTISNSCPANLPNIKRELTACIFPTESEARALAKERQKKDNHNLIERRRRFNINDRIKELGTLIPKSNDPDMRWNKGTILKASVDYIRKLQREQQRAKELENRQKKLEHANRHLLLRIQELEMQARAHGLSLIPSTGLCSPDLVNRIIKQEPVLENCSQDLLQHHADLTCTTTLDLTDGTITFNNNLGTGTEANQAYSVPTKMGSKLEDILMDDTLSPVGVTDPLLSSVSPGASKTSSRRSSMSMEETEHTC

A-375 = assay: MITF: Counter assay: A375 proliferation Measured in Cell-Based System Using Plate Reader - 2084-03_Inhibitor_Dose_DryPowder_Activity. [Related pubchem assays (depositor defined):AID488944]; format: functional; details: Homo sapiens
Protein RecA = target: T5, Protein RecA (Mycobacterium tuberculosis, UniProt P9WHJ3); assay: Fluorescence Cell-Free Homogeneous Dose Retest to Identify Inhibitors of RecA-Intein Splicing Activity. [Related pubchem assays (depositor defined):AID2097, AID2223, AID489010, AID492950]; format: functional
T5 sequence (P9WHJ3 whole entry): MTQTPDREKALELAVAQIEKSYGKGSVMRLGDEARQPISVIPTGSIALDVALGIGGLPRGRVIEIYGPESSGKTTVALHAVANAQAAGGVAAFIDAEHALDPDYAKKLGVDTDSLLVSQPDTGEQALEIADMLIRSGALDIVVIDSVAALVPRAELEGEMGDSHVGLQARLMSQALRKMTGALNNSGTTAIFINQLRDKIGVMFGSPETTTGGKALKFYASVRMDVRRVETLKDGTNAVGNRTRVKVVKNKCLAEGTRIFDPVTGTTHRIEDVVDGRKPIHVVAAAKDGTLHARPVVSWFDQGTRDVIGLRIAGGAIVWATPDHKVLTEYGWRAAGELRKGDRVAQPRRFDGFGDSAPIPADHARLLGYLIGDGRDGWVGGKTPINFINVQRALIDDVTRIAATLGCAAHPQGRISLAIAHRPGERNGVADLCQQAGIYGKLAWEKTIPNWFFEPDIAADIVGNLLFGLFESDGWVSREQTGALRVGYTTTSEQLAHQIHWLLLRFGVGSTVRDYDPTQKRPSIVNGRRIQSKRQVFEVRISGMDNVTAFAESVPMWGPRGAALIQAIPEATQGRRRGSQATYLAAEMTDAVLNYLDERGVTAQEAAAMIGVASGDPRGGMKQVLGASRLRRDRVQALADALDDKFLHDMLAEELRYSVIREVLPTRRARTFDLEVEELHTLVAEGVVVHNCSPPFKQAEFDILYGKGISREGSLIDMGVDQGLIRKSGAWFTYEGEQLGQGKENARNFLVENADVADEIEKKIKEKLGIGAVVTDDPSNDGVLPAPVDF

[14] = Luminescence Cell-Based Dose Retest to Confirm Inhibitors of Cancer Stem Cells. [Related pubchem assays (depositor defined):AID2717, AID2721]; format: functional; details: Homo sapiens

COc1cc2c(cc1OC)-c1cc(NC3CCCCCCC3)nc(=O)n1CC2
EC50 [1]: 28.4 µM (active) | IC50 [2]: 7.99 µM (active) | EC50 [3]: 0.18 µM (active) | EC50 [4]: 6.92 µM (active) | EC50 (HEK293 [5]): > 59.7 µM (inactive) | EC50 [6]: > 112 µM (not active) | EC50 (HEK293 [7]): > 59.7 µM (inactive) | EC50 [8]: > 120 µM (not active)

Cc1ccc2[nH]c(SC(C(=O)Nc3ccc(F)cc3)c3ccccc3)nc2c1 (configuration not stated)
EC50 [9]: > 92.5 µM (inactive) | EC50 (Mu-type opioid receptor): > 92.5 µM (inactive) | EC50 [10]: > 92.5 µM (inactive)

CC1CN(S(=O)(=O)c2ccc(C(=O)Nc3ccccc3F)cc2)CC(C)O1 (configuration not stated)
AC50 (Escherichia coli): 25.1 µM (active)

CC1=C(CC(=O)c2ccccc2)C(=O)c2ccccc2C1=O
IC50 [11]: 28.8 µM (active) | AC50 [12]: 18.7 µM (active) | AC50 [13]: 7.15 µM (active) | AC50 (A-375): 42.7 µM (active) | EC50 (Protein RecA): 3.45 µM (active)

CC1(NC(=O)CC(c2ccccc2)(c2ccccc2)c2ccccc2)CCN(CCCc2ccccc2)C1=O (configuration not stated)
EC50 [9]: > 92.5 µM (inactive) | EC50 (Mu-type opioid receptor): > 92.5 µM (inactive) | AC50 [14]: 5.42 µM (active) | EC50 [10]: > 92.5 µM (inactive)

CC1(C)CC(=O)C/C(=N\NC(=O)CCc2ccc(S(=O)(=O)N3CCOCC3)cc2)C1
AC50 (Escherichia coli): 44.6 µM (active)
